Activity calls are given as the source filed them.

EC50 and AC50 data for 29 compounds are collected here from ChEMBL document CHEMBL1201862, “PubChem BioAssay data set” (2004).

The target in assay [1] is T1, Heat shock factor protein 1 (Mus musculus, UniProt P38532).
T1 sequence (P38532 whole entry): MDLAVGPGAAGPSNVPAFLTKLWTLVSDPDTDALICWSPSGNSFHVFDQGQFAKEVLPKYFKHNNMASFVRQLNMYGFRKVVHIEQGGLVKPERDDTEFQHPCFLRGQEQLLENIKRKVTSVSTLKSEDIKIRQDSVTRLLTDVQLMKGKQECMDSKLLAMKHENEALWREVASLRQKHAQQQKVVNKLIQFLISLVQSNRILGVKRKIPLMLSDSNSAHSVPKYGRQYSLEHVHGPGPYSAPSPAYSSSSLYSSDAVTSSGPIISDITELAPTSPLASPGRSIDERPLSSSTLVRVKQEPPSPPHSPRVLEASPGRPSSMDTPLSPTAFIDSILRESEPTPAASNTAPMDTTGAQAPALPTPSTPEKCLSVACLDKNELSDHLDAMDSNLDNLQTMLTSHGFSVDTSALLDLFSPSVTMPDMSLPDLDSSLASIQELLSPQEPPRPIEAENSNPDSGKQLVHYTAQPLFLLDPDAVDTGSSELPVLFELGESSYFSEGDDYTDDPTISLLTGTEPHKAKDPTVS
As to the kind of experiment: decrease of HSF1-responsive luciferase luminescence – cell-based, NIH3T3, dose retest, confirmation (AID 2382).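 Note: NIH3T3 fibroblasts with HSF1-driven luciferase reporter stressed by proteasome inhibitor MG132; luminescence from HSF1-driven luciferase expression after 8 hours of MG132 stress.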 It counts as functional.

Assay [2] deals with T2, Corticotropin-releasing factor receptor 2/Corticotropin-releasing factor-binding protein (Homo sapiens, UniProt P24387+Q13324).
T2 sequence (Q13324 whole entry): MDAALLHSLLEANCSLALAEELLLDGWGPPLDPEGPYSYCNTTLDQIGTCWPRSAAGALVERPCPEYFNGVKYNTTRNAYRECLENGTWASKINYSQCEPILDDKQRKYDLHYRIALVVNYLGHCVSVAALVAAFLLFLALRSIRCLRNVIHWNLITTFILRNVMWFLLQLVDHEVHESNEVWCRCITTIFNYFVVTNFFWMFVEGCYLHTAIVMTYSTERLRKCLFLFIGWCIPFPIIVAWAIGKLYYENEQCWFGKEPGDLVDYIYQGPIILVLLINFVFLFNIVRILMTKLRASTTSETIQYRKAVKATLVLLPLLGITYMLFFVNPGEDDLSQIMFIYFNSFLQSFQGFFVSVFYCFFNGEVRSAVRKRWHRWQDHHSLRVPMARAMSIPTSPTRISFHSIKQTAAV
T2 sequence (P24387 whole entry): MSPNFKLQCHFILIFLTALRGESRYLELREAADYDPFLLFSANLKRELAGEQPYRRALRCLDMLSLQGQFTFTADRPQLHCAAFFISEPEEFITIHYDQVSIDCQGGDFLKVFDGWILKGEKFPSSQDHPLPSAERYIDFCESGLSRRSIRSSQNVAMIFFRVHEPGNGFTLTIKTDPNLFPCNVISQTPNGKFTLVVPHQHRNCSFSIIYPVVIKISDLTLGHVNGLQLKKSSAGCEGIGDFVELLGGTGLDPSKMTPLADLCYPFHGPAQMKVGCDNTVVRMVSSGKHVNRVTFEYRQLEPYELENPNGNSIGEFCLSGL
Briefly: activators of CRF receptor 2 with binding protein – uHTS hits, confirmation (AID 602473). The assay is classed as functional. To be noted: read-out: EC50_Mean.

A further assay concerns the target Cytochrome P450 2C19 (Homo sapiens, UniProt P33261). Briefly: Cytochrome panel assay with activity outcomes. Panel member name: p450-cyp2c19 Compounds with AC50 equal or less than 10 uM are considered active. It counts as functional. The settings on record: read-out: AC50.
Another assay deals with Cytochrome P450 3A4 (Homo sapiens, UniProt P08684).
In another assay the target is Cytochrome P450 2C9 (Homo sapiens, UniProt P11712).
A further assay has as its target T3, Cytochrome P450 1A2 (Homo sapiens, UniProt P05177).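 Note: PubChem cytochrome P450 panel assay, CYP1A2 panel member.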
T3 sequence (P05177 whole entry): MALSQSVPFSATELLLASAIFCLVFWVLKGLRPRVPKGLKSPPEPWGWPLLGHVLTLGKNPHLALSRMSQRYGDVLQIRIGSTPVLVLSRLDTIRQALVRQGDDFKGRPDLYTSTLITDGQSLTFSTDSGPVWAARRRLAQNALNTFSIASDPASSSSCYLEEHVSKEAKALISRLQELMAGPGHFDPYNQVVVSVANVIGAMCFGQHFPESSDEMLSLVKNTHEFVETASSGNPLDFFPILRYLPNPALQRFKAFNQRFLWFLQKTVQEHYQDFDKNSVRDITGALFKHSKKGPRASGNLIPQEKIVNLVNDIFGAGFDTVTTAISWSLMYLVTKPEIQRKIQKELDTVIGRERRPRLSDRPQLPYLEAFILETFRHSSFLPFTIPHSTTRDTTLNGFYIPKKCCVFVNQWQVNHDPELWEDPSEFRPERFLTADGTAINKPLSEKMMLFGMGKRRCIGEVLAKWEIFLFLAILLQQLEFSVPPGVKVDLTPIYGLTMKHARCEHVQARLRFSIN

Cytochrome P450 3A4, sequence (P08684 whole entry): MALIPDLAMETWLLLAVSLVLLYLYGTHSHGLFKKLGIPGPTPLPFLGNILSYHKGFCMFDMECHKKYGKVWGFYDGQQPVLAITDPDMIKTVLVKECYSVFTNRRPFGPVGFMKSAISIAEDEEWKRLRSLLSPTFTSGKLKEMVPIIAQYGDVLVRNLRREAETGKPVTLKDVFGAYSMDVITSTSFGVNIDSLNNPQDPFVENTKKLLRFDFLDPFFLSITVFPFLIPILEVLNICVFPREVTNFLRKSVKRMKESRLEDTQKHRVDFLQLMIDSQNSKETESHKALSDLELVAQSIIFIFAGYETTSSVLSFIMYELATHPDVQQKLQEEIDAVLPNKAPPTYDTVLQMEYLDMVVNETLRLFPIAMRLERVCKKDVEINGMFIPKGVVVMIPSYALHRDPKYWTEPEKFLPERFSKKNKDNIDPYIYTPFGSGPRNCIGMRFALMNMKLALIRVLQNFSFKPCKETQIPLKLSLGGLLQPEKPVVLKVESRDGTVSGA
Cytochrome P450 2C19, sequence (P33261 whole entry): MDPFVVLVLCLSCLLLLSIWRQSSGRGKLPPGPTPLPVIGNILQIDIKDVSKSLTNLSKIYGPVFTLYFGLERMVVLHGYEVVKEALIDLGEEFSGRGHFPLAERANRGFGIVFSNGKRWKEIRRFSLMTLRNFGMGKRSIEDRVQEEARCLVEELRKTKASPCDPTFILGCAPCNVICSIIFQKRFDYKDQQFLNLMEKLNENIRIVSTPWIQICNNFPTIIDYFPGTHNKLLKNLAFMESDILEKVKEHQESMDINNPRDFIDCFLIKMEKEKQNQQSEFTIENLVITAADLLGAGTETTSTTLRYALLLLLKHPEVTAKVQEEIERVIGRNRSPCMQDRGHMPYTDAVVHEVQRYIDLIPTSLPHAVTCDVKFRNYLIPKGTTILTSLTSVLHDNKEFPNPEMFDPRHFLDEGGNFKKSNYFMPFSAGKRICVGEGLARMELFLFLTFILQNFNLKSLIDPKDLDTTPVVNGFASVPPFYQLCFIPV
Cytochrome P450 2C9, sequence (P11712 whole entry): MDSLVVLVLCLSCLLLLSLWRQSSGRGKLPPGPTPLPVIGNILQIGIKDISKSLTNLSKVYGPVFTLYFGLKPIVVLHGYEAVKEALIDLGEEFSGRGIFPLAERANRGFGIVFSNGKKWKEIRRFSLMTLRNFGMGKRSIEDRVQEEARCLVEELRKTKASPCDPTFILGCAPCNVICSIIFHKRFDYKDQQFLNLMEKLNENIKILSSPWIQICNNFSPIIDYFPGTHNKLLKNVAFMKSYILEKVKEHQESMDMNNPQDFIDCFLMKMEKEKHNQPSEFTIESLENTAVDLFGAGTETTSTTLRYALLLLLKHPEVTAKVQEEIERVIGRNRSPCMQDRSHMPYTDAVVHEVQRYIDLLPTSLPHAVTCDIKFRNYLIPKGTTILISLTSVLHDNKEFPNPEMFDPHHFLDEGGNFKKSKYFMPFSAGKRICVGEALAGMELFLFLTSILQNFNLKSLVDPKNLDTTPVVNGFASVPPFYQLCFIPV

Take `Cc1noc(C)c1CSCC(=O)Nc1ccc(S(=O)(=O)C(F)F)cc1`: in assay [1], the EC50 is > 195 µM (not active).
Regarding `CCCn1c(SCC(=O)N2CC(=O)Nc3ccccc32)nc2ccccc21`, the EC50 in assay [2] was > 53 µM (inactive).
Consider `O=C(c1ccc2c(=O)n(Cc3ccccc3)c(=S)[nH]c2c1)N1CCOCC1`, for which the EC50 in assay [1] is > 195 µM (not active).
Take `COC(=O)N1CCC2(CCCN(C(=O)Nc3cccc(C#N)c3)C2)CC1`: the AC50 at Cytochrome P450 2C19 was 10 µM (inconclusive); at Cytochrome P450 3A4, 6.31 µM (inconclusive).
On to `CC1(C)Cc2ccccc2C(NNC(=O)c2ccncc2)=N1`, for which, at Cytochrome P450 2C19, the AC50 is 31.6 µM (inconclusive).
In the case of `CCOc1ccc(N/C(=N/N)c2ccc3ccccc3n2)cc1`, the EC50 in assay [1] is > 195 µM (not active).
Regarding `Clc1ccc2c(c1)N(CCCN1CCCC13CCCCC3)c1ccccc1S2`, at Cytochrome P450 2C19, the AC50 is 5.01 µM (inconclusive).
`C=CCn1c(SCC(=O)NCCc2ccccc2)nnc1C(C)NC(=O)c1cccs1` (stereo not drawn): the EC50 in assay [1] was > 195 µM (not active).
Turning to `COc1ccccc1C(=O)N/C(=C\c1cn(S(=O)(=O)N(C)C)c2ccccc12)C(=O)NCCN1CCOCC1`, in assay [1], the EC50 is > 195 µM (not active).
On to `COC(=O)[C@@H]1CC[C@H](C)[C@@H](c2ccc(C)cc2)N1C(=O)c1ccc(/C=N\OC[C@@H](O)COCc2ccco2)cc1`, for which the AC50 at Cytochrome P450 2C19 was 2.51 µM (inconclusive); at Cytochrome P450 3A4, 1.26 µM (inconclusive).
Turning to `N#CN(CC(N)=O)c1nc(N2CCCCC2)nc(N2CCCCC2)n1`, the AC50 is 22.4 µM (inconclusive) at Cytochrome P450 2C19 and 10 µM (inconclusive) at Cytochrome P450 2C9.
As to `COC(=O)[C@@]1(Cc2ccc(F)cc2)[C@H]2c3cc(C(=O)N4CCCC4)n(Cc4ccccn4)c3C[C@H]2CN1C(=O)c1ccccc1`, the AC50 at Cytochrome P450 2C19 is 39.8 µM (inconclusive); on Cytochrome P450 1A2, 20 µM (inconclusive).
For `Cc1cc([N+](=O)[O-])ccc1NC(=O)CCC(=O)N1CCCCC1`, the EC50 in assay [1] was > 195 µM (not active).
Take `CCC1CCCCN1Cc1ccc(OC)c(C)c1` (stereo not drawn): the EC50 in assay [2] was 14 µM (active).
In the case of `N#Cc1c(-c2ccc3c(c2)OCO3)csc1N`, the EC50 in assay [1] was > 195 µM (not active).
As to `COc1ccc(NS(=O)(=O)c2ccc(-c3ccccn3)s2)cc1`, the EC50 in assay [1] was > 195 µM (not active).
As to `CN(c1ccccc1)S(=O)(=O)c1nnc(NC(=O)COc2ccccc2F)s1`, in assay [1], the EC50 was > 195 µM (not active).
For `C=C(C)Cn1c(NCCC)nc2c1c(=O)n(C)c(=O)n2C`, the EC50 in assay [1] is reported as > 195 µM (not active).
In the case of `Cc1ccc2nc(CC(=O)c3ccc4ccccc4c3)c(O)nc2c1`, the AC50 was 0.794 µM (inconclusive) at Cytochrome P450 2C19, 2 µM (inconclusive) at Cytochrome P450 1A2 and 3.98 µM (inconclusive) on Cytochrome P450 3A4.
`CCN(CC)c1nc2c(c(=O)[nH]c(=O)n2C)n1CCOc1ccccc1`: the EC50 in assay [1] is > 195 µM (not active).
As for `C[C@]12CC[C@H]3c4ccc(OC[C@H]5CO5)cc4CC[C@H]3[C@H]1CC[C@@H]2O`, the AC50 on Cytochrome P450 2C19 and at Cytochrome P450 2C9 was 3.16 µM (inconclusive) throughout.
With `CCCCCCc1cc2cc(C(=O)NCc3ccccc3)c(=N)oc2cc1O`, the EC50 in assay [2] is 4.2 µM (active).
With `CS(=O)(=O)N1CCC2(CC1)CN(c1ccncc1)C2`, the AC50 at Cytochrome P450 2C19 was 20 µM (inconclusive).
`Cc1n[nH]c(C)c1S(=O)(=O)N1CCC(C(=O)O)CC1`: the AC50 on Cytochrome P450 2C19 was 22.4 µM (inconclusive).
`COc1ccc(NC(=O)CC#N)cc1OC`: the AC50 at Cytochrome P450 2C19 is 0.00501 µM (inconclusive).
Consider `O=C(OCC(=O)N1N=C(c2ccc(Cl)cc2)CC1c1ccco1)c1ccco1` (stereo not drawn), for which the EC50 in assay [2] is > 53 µM (inactive).
As to `COc1ccc(CC(=N)NOC(=O)Cc2ccccc2)cc1OC`, the results for the AC50 on Cytochrome P450 2C19 and at Cytochrome P450 1A2 were 15.8 µM (inconclusive) and 14.1 µM (inconclusive), respectively.
Turning to `CC(C)OCCCNC(=O)C1CC(=O)N(C2CCCCCCC2)C1` (stereo not drawn), the values for the AC50 on Cytochrome P450 2C19 and at Cytochrome P450 3A4 were 17.8 µM (inconclusive) and 25.1 µM (inconclusive), respectively.
Consider `COc1ccc(CN2CCSCC2)cc1C`, for which the EC50 in assay [2] is 12.7 µM (active).
